The target of this assay is T1, human CCR10 (Homo sapiens, UniProt P46092).
T1 construct: expressed in transfected cells; host or cells: KJMGER8 cells (Namalwa cell-derived line), beta-estradiol-induced; hCCR10G16 cells
T1 sequence (P46092 1-362): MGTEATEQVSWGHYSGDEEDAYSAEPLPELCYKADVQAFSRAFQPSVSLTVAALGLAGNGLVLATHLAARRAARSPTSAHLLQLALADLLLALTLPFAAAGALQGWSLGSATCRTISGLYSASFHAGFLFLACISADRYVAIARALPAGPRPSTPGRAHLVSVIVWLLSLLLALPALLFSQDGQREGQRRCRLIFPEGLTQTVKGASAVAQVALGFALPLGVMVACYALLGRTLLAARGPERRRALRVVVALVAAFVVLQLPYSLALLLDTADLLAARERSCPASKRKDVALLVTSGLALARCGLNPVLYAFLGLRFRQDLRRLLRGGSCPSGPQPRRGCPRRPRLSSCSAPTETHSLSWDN
Briefly: CCR10 antagonistic effect: calcium assay of human CCR10 (CTACK-induced increase of intracellular calcium in hCCR10G16 cells). The note with it: at a concentration of not more than 1000 nmol/L; human CCR10-expressing hCCR10G16 cells, 300 nmol/L CTACK added; read-out: inhibition of increase in the calcium ion concentration. The assay is classed as cell-based. In short, it runs like this:
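Inhibition of CTACK-evoked calcium flux (max minus min Fluo-3 fluorescence over ~5 min, FDSS) was calculated against control in β-estradiol-induced human CCR10/Gα16 KJMGER8 cells, after 30 min compound preincubation at 37 °C; CTACK added from a 300 nmol/L solution.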

Turning to `Cc1cc(F)ccc1Nc1cc(S(=O)(=O)N2CCC(C(N)=O)CC2)ncc1C(=O)N1CCC(c2ccc(F)cc2)CC1` [Compound 138, 1-{4-(4-fluoro-2-methylphenylamino)-5-[4-(4-fluorophenyl)piperidine-1-carbonyl]pyridin-2-ylsulfonyl}piperidine-4-carboxamide], the inhibition at up to 1 µM was at least 50%. Regarding `CNC(=O)[C@@H]1C[C@@H](O)CN1S(=O)(=O)c1cc(Nc2ccc(F)cc2C)c(C(=O)N2CCC(c3ccc(F)cc3)CC2)cn1` [Compound 141, (2S,4R)-1-{4-(4-fluoro-2-methylphenylamino)-5-[4-(4-fluorophenyl)piperidine-1-carbonyl]pyridin-2-ylsulfonyl}-4-hydroxy-N-methylpyrrolidine-2-carboxamide], the inhibition at up to 1 µM is at least 50%. The figure for `Cc1cc(F)ccc1Nc1cc(S(=O)(=O)NC2CCNC2=O)ncc1C(=O)N1CCC(c2ccc(F)cc2)CC1` (centres unmarked) [Compound 142, 4-(4-fluoro-2-methylphenylamino)-5-[4-(4-fluorophenyl)piperidine-1-carbonyl]-N-(2-oxopyrrolidin-3-yl)pyridine-2-sulfonamide] is at least 50%; for `Cc1cc(F)ccc1Nc1cc(S(=O)(=O)N2CCOC2=O)ncc1C(=O)N1CCC(c2ccc(F)cc2)CC1` [Compound 143, 3-{4-(4-fluoro-2-methylphenylamino)-5-[4-(4-fluorophenyl)piperidine-1-carbonyl]pyridin-2-ylsulfonyl}oxazolidin-2-one] it is at least 50%; for `Cc1cc(F)ccc1Nc1cc(S(=O)(=O)N2CCNC2=O)ncc1C(=O)N1CCC(c2ccc(F)cc2)CC1` [Compound 144, 1-{4-(4-fluoro-2-methylphenylamino)-5-[4-(4-fluorophenyl)piperidine-1-carbonyl]pyridin-2-ylsulfonyl}imidazolidin-2-one] it is at least 50%. The figure for `Cc1cc(F)ccc1Nc1cc(S(=O)(=O)Nc2ncccn2)ncc1C(=O)N1CCC(c2ccc(F)cc2)CC1` [Compound 145, 4-(4-fluoro-2-methylphenylamino)-5-[4-(4-fluorophenyl)piperidine-1-carbonyl]-N-(pyrimidin-2-yl)pyridine-2-sulfonamide] is at least 50%; for `Cc1cc(F)ccc1Nc1cc(S(=O)(=O)Nc2ccccn2)ncc1C(=O)N1CCC(c2ccc(F)cc2)CC1` [Compound 146, 4-(4-fluoro-2-methylphenylamino)-5-[4-(4-fluorophenyl)piperidine-1-carbonyl]-N-(pyridin-2-yl)pyridine-2-sulfonamide] it is at least 50%. The figure for `Cc1cc(F)ccc1Nc1cc(S(=O)(=O)Nc2ncc(Br)cn2)ncc1C(=O)N1CCC(c2ccc(F)cc2)CC1` [Compound 147, N-(5-bromopyrimidin-2-yl)-4-(4-fluoro-2-methylphenylamino)-5-[4-(4-fluorophenyl)piperidine-1-carbonyl]pyridine-2-sulfonamide] is at least 50%. As to `Cc1cc(F)ccc1Nc1cc(S(=O)(=O)Nc2nccs2)ncc1C(=O)N1CCC(c2ccc(F)cc2)CC1` [Compound 148, 4-(4-fluoro-2-methylphenylamino)-5-[4-(4-fluorophenyl)piperidine-1-carbonyl]-N-(thiazol-2-yl)pyridine-2-sulfonamide], the inhibition at up to 1 µM was at least 50%. The figure for `Cc1cc(F)ccc1Nc1cc(S(=O)(=O)Nc2nccn2C)ncc1C(=O)N1CCC(c2ccc(F)cc2)CC1` [Compound 149, 4-(4-fluoro-2-methylphenylamino)-5-[4-(4-fluorophenyl)piperidine-1-carbonyl]-N-(1-methyl-1H-imidazol-2-yl)pyridine-2-sulfonamide] is at least 50%; for `CSc1nccc(NS(=O)(=O)c2cc(Nc3ccc(F)cc3C)c(C(=O)N3CCC(c4ccc(F)cc4)CC3)cn2)n1` [Compound 150, 4-(4-fluoro-2-methylphenylamino)-5-[4-(4-fluorophenyl)piperidine-1-carbonyl]-N-[2-(methylthio)pyrimidin-4-yl]pyridine-2-sulfonamide] it is at least 50%.

The values above are taken from patent publication US9701689B2, “Substituted pyridines and pyridazines as CCR10 receptor inhibitors” (KYOWA HAKKO KIRIN CO., LTD., priority 2012, dated 2017).
